From patent US11510921B2, “Bromocriptine formulations” (VEROSCIENCE LLC, priority 2017, dated 2022)
Where a name gives a salt, the structure may show the parent alone.

Tests used:
[1] = Browning (degradation) reaction of bromocriptine with excipients in heated aqueous suspension; type: physicochemical
Method: A series of reaction vessels were prepared containing various combinations of bromocriptine mesylate, Mg stearate, and/or lactose, with or without citric acid, in aqueous suspension and reacted at 60° C. for 55 hours. Additionally, samples were prepared wherein the Mg stearate was replaced/substituted with stearic acid.
2 ml of distilled water was added to the samples, which were then mixed by vortexing, placed in a reaction chamber with thermostat set at 50° C. for 24 hours, then (after 24 hours) set at 60° C. The color change of the sample solutions/mixtures were evaluated by comparing the color of the solution with a Standardized Color Chart; the color intensities of the sample solutions/mixtures (from clear to dark brown) was graded at specified time points from time 0 to time 55 hours (see FIG. 2). In FIG. 2, a number “0” indicates a clear solution or white suspension; a number “40” represents the darkest solution/suspension observed.

[2] = Heat and humidity stability of formulations versus traditional formulation (Table 11); conditions: 40 C and 75% RH; short chain saccharide substituted for lactose
Method: (§1) Effect of constituents on the stability and solubility of bromocriptine formulations. […] The stability and solubility of the formulations are assessed versus a traditional formulation of bromocriptine mesylate as described in Table 1.

[3] = Water solubility of formulations versus traditional formulation (Table 11); conditions: 20 C
Method: as §1

| Compound | bromocriptine degradation and browning reaction ([1]; addition of citric acid and substitution of Mg stearate with stearic acid) | bromocriptine degradation and browning reaction ([1]; addition of citric acid, Mg stearate alone or Mg stearate and lactose) | browning reaction ([1]; bromocriptine exposed to both Mg stearate and lactose) | browning reaction ([1]; bromocriptine with Mg stearate in aqueous environment, absence of lactose) | bromocriptine degradation ([1]; substitution of Mg stearate with solid castor oil, compared with stearic acid) | bromocriptine degradation and browning reaction ([1]; substitution of Mg stearate with stearic acid, with or without lactose) | Relative Improvement In Heat & Humidity Stability Versus Traditional Bromocriptine Mesylate Pharmaceutical Formulation [2] | Relative Improvement in Water Solubility Versus Traditional Bromocriptine Mesylate Pharmaceutical Formulation ([3]; fatty acid or triglyceride + short chain saccharide) | Relative Improvement in Water Solubility Versus Traditional Bromocriptine Mesylate Pharmaceutical Formulation ([3]; fatty acid or triglyceride substituted for Mg stearate) | Relative Improvement in Water Solubility Versus Traditional Bromocriptine Mesylate Pharmaceutical Formulation ([3]; short chain saccharide substituted for lactose) |
| --- | --- | --- | --- | --- | --- | --- | --- | --- | --- | --- |
| CC(C)C[C@H]1C(=O)N2CCC[C@H]2[C@]2(O)O[C@](NC(=O)[C@@H]3C=C4c5cccc6[nH]c(Br)c(c56)C[C@H]4N(C)C3)(C(C)C)C(=O)N12 [bromocriptine, (5′α)-2-bromo-12′-hydroxy-2′-(1-methylethyl)-5′-(2-methylpropyl)-ergotaman-3′,6′,18-trione] | attenuated bromocriptine degradation and the browning reaction by the greatest magnitude | attenuated bromocriptine degradation and the browning reaction | A more intense browning reaction occurred | a browning product was produced | attenuated bromocriptine degradation to an even greater extent | attenuated bromocriptine degradation and the browning reaction |  |  |  |  |
| CC(C)C[C@H]1C(=O)N2CCC[C@H]2[C@]2(O)O[C@](NC(=O)[C@@H]3C=C4c5cccc6[nH]c(Br)c(c56)C[C@H]4N(C)C3)(C(C)C)C(=O)N12 [Bromocriptine Mesylate, (5′α)-2-bromo-12′-hydroxy-2′-(1-methylethyl)-5′-(2-methylpropyl)-ergotaman-3′,6′,18-trione monomethanesulfonate salt] |  |  |  |  |  |  | + | − | − | − |
